Earlier results on one compound are cited in US12246054B2, “Method of treating diseases” (Amryt Endo, Inc., priority 2015, dated 2025).

The conditions of data set [1]: in vivo.
Data set [2] deals with idiopathic intracranial hypertension. The conditions noted are these: IIH patients; injections.

The structures appear in SMILES notation.

Turning to `C[C@@H](O)[C@@H]1NC(=O)[C@H](CCCCN)NC(=O)[C@@H](Cc2c[nH]c3ccccc23)NC(=O)[C@H](Cc2ccccc2)NC(=O)[C@@H](NC(=O)[C@H](N)Cc2ccccc2)CSSC[C@@H](C(=O)N[C@H](CO)[C@@H](C)O)NC1=O` [octreotide], in data set [1], the “acute rebound GH hypersecretion” value was “absence of acute rebound GH hypersecretion” and the circulating half-life was 2 h. Besides, the “Patients in whom headache and papilledema subsided and visual disturbances improved (response rate)” value in data set [2] was “about 90%”.
